# PubChem BioAssay AID720570 (Broad Institute, 2013)
# Tested on: TC71 Ewing sarcoma viability, CellTiter-Glo ATP, 72 h
# Assay: TC71 Ewing sarcoma cell killing, confirmation, luminescence, cherry-picked samples, retest (AID 720570)
row,Structure (SMILES),AC35 [µM]
1,O=C1NC(=O)N(Cc2ccccc2)C(=O)/C1=C\C=C\c1ccco1,10.2
2,CCCN1C/C(=C/c2ccc3c(c2)OCO3)C(=O)/C(=C/c2ccc3c(c2)OCO3)C1,13.6
3,COc1ccc(C2c3cc4c(cc3OC(NNC(N)=O)C2C)OCO4)cc1 (configuration not stated),12
4,O=C(NCc1ccc(F)cc1)N1[C@H]2CC[C@@H]1C=C(c1ccc(F)cc1OCc1ccccc1)C2,13.9
5,C[C@@H]1CN([C@@H](C)CO)C(=O)Cc2cc(NC(=O)Nc3ccc(C(F)(F)F)cc3)ccc2O[C@@H]1CN(C)Cc1ccc(C(=O)Nc2ccccc2N)cc1,10.4
6,COc1ccc(C(C)(O)c2nc(-c3cccc(F)c3)cs2)cc1 (configuration not stated),12.8
7,CCCCc1c(-c2ccccc2OC)ncn1Cc1ccc(C(C)(C)C)cc1,13.1
8,CCCCCCCCn1c2c(c(=N)c3c1CCC3)CCCC2,4.88
9,C[C@@H]1CN([C@@H](C)CO)C(=O)c2cc(NC(=O)c3ccccc3)ccc2O[C@@H](C)CCCCO[C@H]1CN(C)C(=O)Nc1cccc2ccccc12,0.679
10,Cc1ccc(/C=N/Nc2ccnc3cc(Cl)ccc23)c(C)c1,11.8
11,N#CC(=C1C=CC(=NO)C(Cl)=C1)c1ccccc1,6.4
12,C=C1C(=O)[C@@]23[C@H](O)C[C@@H]4C(C)(C)CC[C@H](O)[C@@]4(C)[C@@H]2CC[C@@H]1[C@H]3O,9.15
13,C[C@@H]1CN([C@H](C)CO)C(=O)c2cc(N(C)C)ccc2O[C@H]1CN(C)Cc1ccc(C(=O)Nc2ccccc2N)cc1,12.5
14,C[C@@H]1CN([C@@H](C)CO)C(=O)c2cc(NS(=O)(=O)c3ccccc3)ccc2O[C@@H]1CN(C)Cc1ccc(C(=O)Nc2ccccc2N)cc1,10.2
15,O=C(N/N=C/c1cccs1)c1n[nH]c2c1CCCC2,17.2
16,CCN1CCS/C1=C\C=C\C1=[N+](CC)CCS1,9.96
17,CCc1nc(N)nc(N)c1-c1ccc(Cl)cc1,6.12
18,COc1ccc(CCCNC(=O)C2Cc3c(-c4ccc5c(c4)OCO5)ccnc3O2)cc1 (configuration not stated),3.47
19,Nc1nc(N)c2c(ccc3nccc32)[nH]1,3.24

row,Structure (SMILES),AC35 [µM]
1,Nc1nc2cc3c(cc2cc1C(=O)NCCc1c[nH]c2ccccc12)OCO3,13.7
2,COc1ccccc1NC(=O)N1CCCCN2[C@H](CO)[C@H](c3ccc(-c4cccc(C)c4)cc3)[C@H]2C1,10.9
3,CC(C)(C)C(=O)Cn1ncc(Cl)c(Cl)c1=O,7.6
4,CCOc1ccc(N=Nc2ccc(O)c3ncccc23)cc1,2.8
5,Cc1cccc(NC(=O)CN2CCN(C(=O)CNC(=O)c3ccc(-c4ccccc4)cc3)CC2)c1C,8.9
6,CN1c2ccc(-c3ccc(C#N)cc3)cc2[C@H]2[C@H](CCN2S(=O)(=O)c2cccc(F)c2)[C@@H]1CO,5.53
7,N#C[C@H]1N[C@H](CO)[C@H]1c1ccc(C#Cc2ccc(F)cc2)cc1,18.3
8,COc1ccc(/C=C(/C(=O)c2cccs2)N2C=CC=CC2=C(C#N)C#N)cc1,24.6
9,COc1ccc(S(=O)(=O)N2CCCc3nc(-c4ccc(F)cc4)ccc32)cc1,7.3
10,N#C[C@H]1[C@H](c2ccc(-c3ccccc3F)cc2)[C@@H](CO)N1C(=O)c1ccccn1,13.9
11,COc1cc(-c2coc3c(C(=O)NCc4ccc(C(F)(F)F)cc4)cccc23)ccc1O,4.09
12,Cc1nc(N)nc(N)c1-c1ccc(Cl)c(Cl)c1,0.714
13,O=C(Nc1ccc(F)cc1)N1CCCCN2[C@@H](CO)[C@H](c3ccc(C4=CCCCC4)cc3)[C@@H]2C1,22.4
14,C[C@@H]1O[C@@H](O[C@H]2C[C@@H](O)[C@]3(CO)[C@H]4[C@H](O)C[C@]5(C)[C@@H](C6COC(=O)C6)CC[C@]5(O)[C@@H]4CC[C@]3(O)C2)[C@H](O)[C@H](O)[C@H]1O (some centres not stated),4.19
15,Cc1ccc(S(=O)(=O)Nc2ccc3c(c2)C(=O)N([C@@H](C)CO)C[C@H](C)[C@@H](CN(C)Cc2ccc(C(F)(F)F)cc2)OCCCC[C@@H](C)O3)cc1,11.8
16,C[C@H](CO)N1C[C@H](C)[C@H](CN(C)Cc2ccccc2)Oc2ccc(NC(=O)CCCCCC(=O)Nc3ccccc3N)cc2CC1=O,15.1
17,O=c1ccc2ccccc2c2ccccc12,10.5
18,Cc1cc(C)c2sc(NNC(=O)c3ccc(S(=O)(=O)N4CCc5ccccc5C4)cc3)nc2c1,2.4
